≈ marks a conversion by molar mass, not a printed value.
What was measured:
[1] = pKa determination; format: physicochemical; conditions: 66% aqueous dimethylformamide; free acid form
Text: Antibiotic A80190 has been assigned structure 1 based on X-ray crystallographic studies.

[2] = test system: Clostridium perfringens 81; assay: microbe, parasite or virus in culture; format: cell-based; conditions: Clostridium perfringens, 81, 24 h
[3] = test system: Bacteroides corrodens 1874; assay: Agar-dilution assay, anaerobic bacteria; format: cell-based; conditions: Eikenella corrodens, 24-hour incubation
Protocol: (§1) One important aspect of the antimicrobial activity of A80190 compounds relates to their activity against anaerobic bacteria. The minimal inhibitory concentrations (MIC's) at which A80190 inhibits various anaerobic bacteria, as determined by standard agar-dilution assay, are summarized in Table VII. End points were read after 24-hour incubation.

[4] = test system: Bacteroides fragilis 111; assay: Agar-dilution assay, anaerobic bacteria; format: cell-based; conditions: 24-hour incubation
Protocol: as §1

[5] = test system: Bacteroides fragilis 1877; assay: Agar-dilution assay, anaerobic bacteria; format: cell-based; conditions: 24-hour incubation
Protocol: as §1

[6] = test system: Bacteroides fragilis 1936B; assay: Agar-dilution assay, anaerobic bacteria; format: cell-based; conditions: 24-hour incubation
Protocol: as §1

[7] = test system: Bacteroides melaninogenicus 1856/28; assay: Agar-dilution assay, anaerobic bacteria; format: cell-based; conditions: Prevotella intermedia, 24-hour incubation
Protocol: as §1

[8] = test system: Bacteroides melaninogenicus 2736; assay: Agar-dilution assay, anaerobic bacteria; format: cell-based; conditions: 24-hour incubation
Protocol: as §1

[9] = test system: Bacteroides thetaiotaomicron 1438; assay: Agar-dilution assay, anaerobic bacteria; format: cell-based; conditions: 24-hour incubation
Protocol: as §1

[10] = test system: Bacteroides vulgatis 1211; assay: Agar-dilution assay, anaerobic bacteria; format: cell-based; conditions: 24-hour incubation
Protocol: as §1

[11] = test system: Clostridium difficile 2994; assay: Agar-dilution assay, anaerobic bacteria; format: cell-based; conditions: Clostridioides difficile, 24-hour incubation
Protocol: as §1

[12] = test system: Clostridium septicum 1128; assay: Agar-dilution assay, anaerobic bacteria; format: cell-based; conditions: 24-hour incubation
Protocol: as §1

[13] = test system: Eubacterium aerofaciens 1235; assay: Agar-dilution assay, anaerobic bacteria; format: cell-based; conditions: Collinsella aerofaciens, 24-hour incubation
Protocol: as §1

[14] = test system: Fusobacterium necrophorum 6054A; assay: Agar-dilution assay, anaerobic bacteria; format: cell-based; conditions: 24-hour incubation
Protocol: as §1

[15] = test system: Fusobacterium symbiosum 1470; assay: Agar-dilution assay, anaerobic bacteria; format: cell-based; conditions: 24-hour incubation
Protocol: as §1

[16] = test system: Peptococcus asaccharolyticus 1302; assay: Agar-dilution assay, anaerobic bacteria; format: cell-based; conditions: Peptoniphilus asaccharolyticus, 24-hour incubation
Protocol: as §1

[17] = test system: Peptostreptococcus anaerobius 1428; assay: Agar-dilution assay, anaerobic bacteria; format: cell-based; conditions: 24-hour incubation
Protocol: as §1

[18] = test system: Peptostreptococcus intermedius 1624; assay: Agar-dilution assay, anaerobic bacteria; format: cell-based; conditions: 24-hour incubation
Protocol: as §1

[19] = test system: Petococcus prevoti 1281; assay: Agar-dilution assay, anaerobic bacteria; format: cell-based; conditions: 24-hour incubation
Protocol: as §1

[20] = test system: Propionibacterium acnes 79; assay: Agar-dilution assay, anaerobic bacteria; format: cell-based; conditions: Cutibacterium acnes, 24-hour incubation
Protocol: as §1

## CC[C@@H](O)[C@]1(C)C[C@H](C)[C@@](O)([C@H]2C[C@H](C)[C@H]([C@]3(C)C[C@@H](O[C@H]4CC[C@H](OC)[C@@H](C)O4)[C@H]([C@@H]4CC[C@@]5(O[C@H]([C@@H](C)[C@@H](OC)[C@H](C)C(=O)O)[C@H](C)[C@@H](OC)[C@H]5C)O4)O3)O2)O1 [Example A80190]
[1]
  pKa: 6.2
[2]
  MIC: < 0.5 µg/mL
[3]
  MIC: > 128 µg/mL
[4]
  MIC: > 128 µg/mL
[5]
  MIC: > 128 µg/mL
[6]
  MIC: > 128 µg/mL
[7]
  MIC: > 128 µg/mL
[8]
  MIC: > 128 µg/mL
[9]
  MIC: > 128 µg/mL
[10]
  MIC: 16 µg/mL (≈ 19.3 µM)
[11]
  MIC: < 0.5 µg/mL
[12]
  MIC: < 0.5 µg/mL
[13]
  MIC: < 0.5 µg/mL
[14]
  MIC: 16 µg/mL (≈ 19.3 µM)
[15]
  MIC: 8 µg/mL (≈ 9.65 µM)
[16]
  MIC: 1 µg/mL (≈ 1.21 µM)
[17]
  MIC: 1 µg/mL (≈ 1.21 µM)
[18]
  MIC: 1 µg/mL (≈ 1.21 µM)
[19]
  MIC: < 0.5 µg/mL
[20]
  MIC: 1 µg/mL (≈ 1.21 µM)
